# Data published in patent US11414450B1, “Aminoglycosides and uses thereof” (REVAGENIX, INC., priority 2017, dated 2022).
# Tests used:
# Type in all cases: cell-based
# [1] = tested on: E. coli ATCC 25922; experiment: Minimum inhibitory concentration (broth microdilution, CLSI), E. coli ATCC 25922; details: for Geometric Mean MIC values, E. coli ATCC 25922: Table 2
# Experimental: (§1) Minimum inhibitory concentrations for the example compounds herein are determined by the broth microdilution method in accordance with the Clinical and Laboratory Standards Institute (CLSI) guidelines. In brief, organism suspensions are adjusted to a 0.5 McFarland standard to yield a final inoculum between 3×10^5 and 7×10^5 colony-forming units (CFU)/mL. Compound dilutions and inocula are made in sterile, cation adjusted Mueller-Hinton Broth (Beckton Dickinson). The inoculum is prepared by suspension of a colony from an agar plate that is prepared the previous day. Bacteria are suspended in sterile saline and added to each assay plate to obtain a final concentration of 5×10^5 CFU/mL. An inoculum volume of 100 μL is added to wells containing 100 μL of broth with 2-fold serial dilutions of the compound. All inoculated microdilution trays are incubated in ambient air at 35° C. for 18-24 hours. Following incubation, the lowest concentration of the compound that prevents visible growth (OD 600 nm<0.05) is recorded as the MIC. […] Performance of the assay is monitored by the use of laboratory quality-control strains and a compound with a defined MIC spectrum (such as levofloxacin), in accordance with CLSI guidelines. Compounds are tested against multiple microbiologic panels. Panels include: 1) a multi-species primary screening panel that includes multiple defined AG-R mechanisms; 2) a panel of isogenic strains carrying different common mechanisms of AG-R that allows characterization of the SAR for AMEs, RMTs, and entry and efflux resistance mechanisms; and 3) panels of recent clinical isolates selected from Phase 3 studies and ongoing global surveillance.
# [2] = tested on: E. coli efflux parent; experiment: MIC broth microdilution, E. coli efflux parent strain; details: for Geometric Mean MIC values, E. coli efflux parent: Table 2
# Experimental: as §1
# [3] = tested on: E. coli Δefflux (tolC efflux pump knocked-out); experiment: MIC broth microdilution, E. coli Δefflux strain (tolC knocked out)
# Experimental: as §1
# [4] = tested on: E. coli isogenic strain empty vector; experiment: MIC broth microdilution, E. coli isogenic strain, empty vector; details: for Geometric Mean MIC values, E. coli isogenic strains, empty vector: Table 2
# Experimental: as §1
# [5] = tested on: E. coli isogenic strain aac(6′)-Ib; experiment: MIC broth microdilution, E. coli isogenic strain aac(6′)-Ib; details: for Geometric Mean MIC values, E. coli isogenic strains, aac(6′)-Ib: Table 2
# Experimental: as §1
# [6] = tested on: E. coli isogenic strain aph(3′)-II; experiment: MIC broth microdilution, E. coli isogenic strain aph(3′)-II; details: for Geometric Mean MIC values, E. coli isogenic strains, aph(3′)-II: Table 2
# Experimental: as §1
# [7] = tested on: E. coli isogenic strain aph(3′)-Ia; experiment: MIC broth microdilution, E. coli isogenic strain aph(3′)-Ia; details: for Geometric Mean MIC values, E. coli isogenic strains, aph(3′)-Ia: Table 2, aph(3′)-Ia has activity at both the 3′-hydroxy and 5″-hydroxy positions
# Experimental: as §1
# [8] = tested on: E. coli isogenic strain ant(4′)-Ia; experiment: MIC broth microdilution, E. coli isogenic strain ant(4′)-Ia; details: for Geometric Mean MIC values, E. coli isogenic strains, ant(4′)-Ia: Table 2
# Experimental: as §1
# [9] = tested on: E. coli isogenic strain armA; experiment: MIC broth microdilution, E. coli isogenic strain armA; details: for Geometric Mean MIC values, E. coli isogenic strains, armA: Table 2
# Experimental: as §1
# [10] = tested on: E. coli isogenic strain nmpA; experiment: MIC broth microdilution, E. coli isogenic strain nmpA; details: for Geometric Mean MIC values, E. coli isogenic strains, nmpA: Table 2
# Experimental: as §1
SMILES,"Geometric Mean MIC values, E. coli ATCC 25922 [1] [µg/mL]","Geometric Mean MIC values, E. coli efflux parent [2] [µg/mL]","Geometric Mean MIC values, E. coli Δefflux ([3]; Table 2) [µg/mL]","Geometric Mean MIC values, E. coli isogenic strains, empty vector [4] [µg/mL]","Geometric Mean MIC values, E. coli isogenic strains, aac(6′)-Ib [5] [µg/mL]","Geometric Mean MIC values, E. coli isogenic strains, aph(3′)-II [6] [µg/mL]","Geometric Mean MIC values, E. coli isogenic strains, aph(3′)-Ia [7] [µg/mL]","Geometric Mean MIC values, E. coli isogenic strains, ant(4′)-Ia [8] [µg/mL]","Geometric Mean MIC values, E. coli isogenic strains, armA [9] [µg/mL]","Geometric Mean MIC values, E. coli isogenic strains, nmpA [10] [µg/mL]","MIC ([1]; Escherichia coli, ATCC25922, E. coli ATCC 25922, broth microdilution, read-out: Geometric Mean MIC values, E. coli ATCC 25922) [µg/mL]","MIC ([2]; Escherichia coli, E. coli efflux parent strain, read-out: Geometric Mean MIC values, E. coli efflux parent) [µg/mL]","Geometric Mean MIC values, E. coli Δefflux ([3]; E. coli Δefflux) [µg/mL]","MIC ([4]; Escherichia coli, read-out: Geometric Mean MIC values, E. coli isogenic strains empty vector) [µg/mL]","MIC ([5]; Escherichia coli, read-out: Geometric Mean MIC values, E. coli isogenic strains aac(6′)-Ib) [µg/mL]","MIC ([6]; Escherichia coli, read-out: Geometric Mean MIC values, E. coli isogenic strains aph(3′)-II) [µg/mL]","MIC ([7]; Escherichia coli, read-out: Geometric Mean MIC values, E. coli isogenic strains aph(3′)-Ia) [µg/mL]","MIC ([8]; Escherichia coli, read-out: Geometric Mean MIC values, E. coli isogenic strains ant(4′)-Ia) [µg/mL]","MIC ([9]; Escherichia coli, read-out: Geometric Mean MIC values, E. coli isogenic strains armA) [µg/mL]","MIC ([10]; Escherichia coli, read-out: Geometric Mean MIC values, E. coli isogenic strains npmA) [µg/mL]"
CCC(N)C1CCC(N)C(OC2C(N)CC(N)C(O)C2OC2OC(CO)C(OC3OC(CN)C(O)C(O)C3N)C2O)O1 (stereo not drawn) [drawing 860],2,1.4,0.71,1,1.3,1,>64,1,3.2,>64,–,–,–,–,–,–,–,–,–,–
CCC(N)C1CCC(N)C(OC2C(N)CC(N)C(O)C2OC2OC(CO)C(OC3OC(CN)C(O)C(O)C3N)C2O)O1 (stereo not drawn) [drawing 861],1.4,2,1,1,1,0.5,>64,0.5,5.7,>64,–,–,–,–,–,–,–,–,–,–
"NCC1OC(OC2C(N)CC(N)C(O)C2OC2OC(CO)C(OC3OC(CN)C(O)C(O)C3N)C2O)C(N)CC1O (stereo not drawn) [drawing 864, reference compound]",0.71,0.63,0.25,0.32,2,0.25,38,2,0.6,>64,–,–,–,–,–,–,–,–,–,–
NCC1OC(OC2C(CO)OC(OC3C(O)C(N)CC(N)C3OC3OC(CN)C(O)C(F)C3N)C2O)C(N)C(O)C1O (stereo not drawn) [drawing 866],1.3,1.4,0.71,0.63,8,1,>64,8,1.4,>64,–,–,–,–,–,–,–,–,–,–
NCC1OC(OC2C(CO)OC(OC3C(O)C(N)CC(N)C3OC3OC(CN)C(O)C(F)C3O)C2O)C(N)C(O)C1O (stereo not drawn) [drawing 867],2,1.4,1,2,>64,1.4,64,64,2.8,>64,–,–,–,–,–,–,–,–,–,–
NCC1OC(OC2C(CO)OC(OC3C(O)C(N)CC(N)C3OC3OC(CN)C(O)C(F)C3N)C2O)C(N)C(O)C1O (stereo not drawn) [drawing 868],16,8,4,16,>64,8,>64,32,64,>64,–,–,–,–,–,–,–,–,–,–
NCC1OC(OC2C(CO)OC(OC3C(O)C(N)CC(N)C3OC3OC(CN)C(O)C(F)C3N)C2O)C(N)C(O)C1O (stereo not drawn) [drawing 869],1,1,1,1,4,1,>64,1,4,>64,–,–,–,–,–,–,–,–,–,–
NCC1OC(OC2C(CO)OC(OC3C(O)C(N)CC(N)C3OC3OC(CN)C(O)C(F)(F)C3N)C2O)C(N)C(O)C1O (stereo not drawn) [drawing 870],5,4,2,4,>64,4,>64,8,32,>64,–,–,–,–,–,–,–,–,–,–
NC[C@@H]1CC[C@@H](N)[C@@H](O[C@@H]2[C@@H](N)[C@H](O)[C@@H](N)[C@H](O)[C@H]2O[C@@H]2O[C@H](CO)[C@@H](O[C@H]3O[C@@H](CN)[C@@H](O)[C@H](O)[C@H]3N)[C@H]2O)O1 [drawing 888],–,–,–,–,–,–,–,–,–,–,1,0.5,0.5,0.5,16,0.5,> 64,0.5,4,> 64
